In patent US3946040A, “Propynyl benzyl ethers” (Hoffmann-La Roche Inc., priority 1973, dated 1976):

Assays:
Format in all cases: in vivo
[1] = system: black bean aphids; assay: Aphids: seedling of the field bean with black bean aphids sprayed; dead and surviving aphids counted; conditions: stated logarithmically (3 = 10^^-3 g/cm^3); for LD50 concentration based on insect-poison: I:P 100:0; for LD50 concentration (refers to the propynyl benzyl ether itself): I:P 0:100, ether alone
Protocol: For each test, one seedling of the field bean with ca 50-100 black bean aphids is sprayed with a solution of the active ingredient(s) in acetone or an aqueous spray-wash of the active ingredient(s). The seedlings are individually placed in tubes in water. After 24 and 48 hours, the dead and surviving aphids are counted and the activity calculated in %.

[2] = system: flies; assay: Flies: placed in sprayed petri dishes; dead or crippled flies counted; conditions: after 24 hours, stated logarithmically (3 = 10^^-3 g/cm^3); for LD50 concentration based on insect-poison: I:P 100:0
Protocol: For each test, two petri dishes are sprayed with a solution of the active ingredient(s) in acetone or an aqueous spray-wash of the active ingredient(s). The dosage for each treated surface is 10^^-5 g/cm^2 = 1 kg/ha. After 2-3 hours, 10 flies aged 4-5 days are placed in each petri dish. After 1, 3 and 24 hours, the flies which are dead or crippled are counted.

[3] = system: spider-mites; assay: Spider-mites on sprayed leaf discs, assessment based on the mortality of the spider-mites (W); conditions: stated logarithmically (3 = 10^^-3 g/cm^3); for LD50 concentration based on insect-poison (W, mortality of the spider-mites): I:P 100:0; for LD50 concentration (W, mortality of the spider-mites; refers to the propynyl benzyl ether itself): I:P 0:100, ether alone
Protocol: (§1) For each test, three beam leaf discs each with a 2-day infection and with 20-40 spider-mites and eggs are sprayed with a solution of the active ingredient(s) in acetone or an aqueous spray-wash of the active ingredient(s). The dosage for each treated surface is 10^^-5 g/cm^2 = 1 kg/ha. After 2 days, the discs are assessed for dead spider-mites and after 6 days for dead spider-mites and killed eggs. (Assessment scheme: from 0-5, where 0 = 0% and 5 = 100% mortality).
W = assessment based on the mortality of the spider-mites;

[4] = system: spider-mite eggs; assay: Spider-mites on sprayed leaf discs, assessment based on the mortality of the eggs (O); conditions: stated logarithmically (3 = 10^^-3 g/cm^3), 8640 min; for LD50 concentration (O, mortality of the eggs; refers to the propynyl benzyl ether itself): I:P 0:100, ether alone
Protocol: as §1
O = assessment based on the mortality of the eggs.

[5] = Malathion group, I:P 0:100, ether alone
[6] = Methoxychlor group, I:P 0:100, ether alone
[7] = Sevin group, I:P 0:100, ether alone

## CCOC(=O)CC(SP(=S)(OC)OC)C(=O)OCC (stereo not drawn) [Malathion, S-[1,2-bis-(carbethoxy)-ethyl]-0,0-dimethyl-dithiophosphate, reference compound]
[1]; Malathion alone
  LD50 concentration based on insect-poison: 5.1
[2]; Malathion alone
  LD50 concentration based on insect-poison: 5.1
[3]; Malathion alone
  LD50 concentration based on insect-poison (W, mortality of the spider-mites): < 4

## C#CCOCc1ccc(OC)c(OC)c1 [B, 3,4-dimethoxy-α-(2-propynyloxy)-toluene]
[1]; Allethrin group
  LD50 concentration (refers to the propynyl benzyl ether itself): 3.0
[1]; Malathion group
  LD50 concentration (refers to the propynyl benzyl ether itself): 3.3
[1]; Methoxychlor group
  LD50 concentration (refers to the propynyl benzyl ether itself): 3.3
[2]; Allethrin group, I:P printed 0:10, ether alone
  LD50 concentration (refers to the propynyl benzyl ether itself): 3.3
[2]; [5]
  LD50 concentration (refers to the propynyl benzyl ether itself): 3.3
[2]; [6]
  LD50 concentration (refers to the propynyl benzyl ether itself): 3.3
[2]; [7]
  LD50 concentration (refers to the propynyl benzyl ether itself): 3.5
[3]; Allethrin group
  LD50 concentration (W, mortality of the spider-mites; refers to the propynyl benzyl ether itself): 3.0
[3]; Malathion group
  LD50 concentration (W, mortality of the spider-mites; refers to the propynyl benzyl ether itself): 3.0
[3]; Methoxychlor group
  LD50 concentration (W, mortality of the spider-mites; refers to the propynyl benzyl ether itself): 3.0
[3]; Sevin group
  LD50 concentration (W, mortality of the spider-mites; refers to the propynyl benzyl ether itself): 3.0
[4]; Allethrin group
  LD50 concentration (O, mortality of the eggs; refers to the propynyl benzyl ether itself): 2.7
[4]; Methoxychlor group
  LD50 concentration (O, mortality of the eggs; refers to the propynyl benzyl ether itself): 2.7
[4]; Sevin group
  LD50 concentration (O, mortality of the eggs; refers to the propynyl benzyl ether itself): 2.7

## C#CCOCc1ccc2c(c1)OCO2 [A, 3,4-(methylenedioxy)-α-(2-propynyloxy)-toluene]
[1]; Allethrin group
  LD50 concentration (refers to the propynyl benzyl ether itself): 3.0
[1]; Methoxychlor group
  LD50 concentration (refers to the propynyl benzyl ether itself): 3.0
[2]; [5]
  LD50 concentration (refers to the propynyl benzyl ether itself): > 3.5
[2]; [6]
  LD50 concentration (refers to the propynyl benzyl ether itself): > 3.5
[2]; [7]
  LD50 concentration (refers to the propynyl benzyl ether itself): 3.5
[3]; Sevin group
  LD50 concentration (W, mortality of the spider-mites; refers to the propynyl benzyl ether itself): < 2

## C=CCC1=C(C)C(OC(=O)C2C(C=C(C)C)C2(C)C)CC1=O (mixture of isomers) [Allethrin, 2-allyl-4-hydroxy-3-methyl-2-cyclopenten-1-one esterified with a mixture of cis and trans 2,2-dimethyl-3-(2-methylpropenyl)-cyclopropanecarboxylic acid, reference compound]
[1]; Allethrin alone
  LD50 concentration based on insect-poison: 5.0
[2]; Allethrin alone
  LD50 concentration based on insect-poison: 5.5
[3]; Allethrin alone
  LD50 concentration based on insect-poison (W, mortality of the spider-mites): 3.4
[4]; Allethrin alone, I:P 100:0
  LD50 concentration based on insect-poison (O, mortality of the eggs): < 3
